The target in assay [1] is T1, human dopamine D3 receptors (Homo sapiens, UniProt P35462).
T1 construct: expressed in transfected cells
The assay can be described thus: Dopamine D3 receptor binding, displacement of [125I]-iodosulpride. To be noted: for Ki: membranes of HEK-293 cells stably expressing human D3, 0.1 nM [125I]-iodosulpride, 25° C., 60 minutes; for Ki(D2)*/Ki(D3)*: selectivity ratio of the receptor binding constants D2 over D3. Here is the method: (§1) The substance to be tested was either dissolved in methanol/Chremophor® (BASFAG) or in dimethyl sulfoxide and then diluted with water to the desired concentration.
(§2) Each assay mixture was run in triplicate.
The incubation buffer contained 50 mM tris, 120 mM NaCl, 5 mM KCl, 2 mM CaCl2, 2 mM MgCl2 and 0.1% bovine serum albumin, 10 μM quinolone and 0.1% ascorbic acid (prepared fresh daily). The buffer was adjusted to pH 7.4 with HCl.
(§3) After having been incubated at 25° C. for 60 minutes, the assay mixtures were filtered through a Whatman GF/B glass fiber filter under vacuum using a cell collecting device. The filters were transferred to scintillation viols using a filter transfer system. After 4 ml of Ultima Gold® (Packard) have been added, the samples were shaken for one hour and the radioactivity was then counted in a Beta-Counter (Packard, Tricarb 2000 or 2200CA). The cpm values were converted into dpm using a standard quench series and the program belonging to the instrument.
(§4) The inhibition curves were analyzed by means of iterative nonlinear regression analysis using the Statistical Analysis System (SAS) which is similar to the “LIGAND” program described by Munson and Rodbard.
(§5) The results of the receptro binding studies are expressed as receptor binding constants Ki(D2) and Ki(D3), respectively, as herein before described, and given in table 6.

Assay [2] deals with T2, human dopamine D2L receptors (long isoform) (Homo sapiens, UniProt P14416).
T2 construct: expressed in transfected cells
The assay can be described thus: Dopamine D2L receptor binding, displacement of [125I] iodospiperone. To be noted: membranes of HEK-293 cells stably expressing human D2L; 0.01 nM [125I] iodospiperone; 25° C., 60 minutes; read-out: Ki(D2)*. Here is the method:
as §1, §2
The incubation buffer contained 50 mM tris, 120 mM NaCl, 5 mM KCl, 2 mM CaCl2, 2 mM MgCl2 and 0.1% bovine serum albumin. The buffer was adjusted to pH 7.4 with HCl.
as §3, §4, §5
On the technique in general: Displacement assays read how much labelled ligand stays bound in the presence of the test substance.

We go through 26 compounds from patent US8470810B2, “Heterocyclic compounds suitable for treating disorders that respond to modulation of the dopamine D3 receptor” (Abbott GmbH & Co. KG, priority 2004, dated 2013).

T2 sequence (P14416 whole entry, canonical isoform): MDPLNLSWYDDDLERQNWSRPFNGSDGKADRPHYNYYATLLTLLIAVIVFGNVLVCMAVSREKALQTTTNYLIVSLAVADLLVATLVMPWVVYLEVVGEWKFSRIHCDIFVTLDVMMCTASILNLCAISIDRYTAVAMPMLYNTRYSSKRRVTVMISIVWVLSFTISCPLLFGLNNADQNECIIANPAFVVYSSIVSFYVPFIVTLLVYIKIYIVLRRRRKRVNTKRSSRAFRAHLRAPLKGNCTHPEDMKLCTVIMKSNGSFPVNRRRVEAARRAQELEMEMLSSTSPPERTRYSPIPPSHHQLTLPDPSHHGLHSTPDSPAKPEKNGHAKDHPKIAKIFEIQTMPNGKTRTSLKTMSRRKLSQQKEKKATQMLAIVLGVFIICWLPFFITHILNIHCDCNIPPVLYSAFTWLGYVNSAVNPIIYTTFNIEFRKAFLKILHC
T1 sequence (P35462 whole entry): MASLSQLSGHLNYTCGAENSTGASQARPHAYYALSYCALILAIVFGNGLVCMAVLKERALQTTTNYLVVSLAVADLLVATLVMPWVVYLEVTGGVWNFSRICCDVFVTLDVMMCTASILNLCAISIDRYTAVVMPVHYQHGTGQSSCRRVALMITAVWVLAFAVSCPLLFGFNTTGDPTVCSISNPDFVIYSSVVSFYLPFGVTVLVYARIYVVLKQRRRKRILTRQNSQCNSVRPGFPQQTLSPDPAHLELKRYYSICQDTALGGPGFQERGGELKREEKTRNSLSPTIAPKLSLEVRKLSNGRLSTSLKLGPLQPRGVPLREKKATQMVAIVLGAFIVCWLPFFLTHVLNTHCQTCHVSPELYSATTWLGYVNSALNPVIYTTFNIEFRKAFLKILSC

For the compound `CCCN1CCC(c2ccc(NS(=O)(=O)c3ccc(C(C)C)cc3)cn2)C1` (single isomer, unassigned; (-)) [Example 131, (−)-N-[6-(1-Propyl-pyrrolidin-3-yl)-pyridin-3-yl]-4-isopropyl-benzene-sulfonamide], in assay [1], affinity was put at a Ki of 5.8 nM and the “Ki(D2)*/Ki(D3)*” value amounted to 74. Besides, the Ki in assay [2] worked out at 430 nM.

Turning to `CCCN1CC[C@@H](c2ccc(NS(=O)(=O)c3ccc(C(C)C)cc3)cc2)C1.Cl` [Example 1, 4-Isopropyl-N-[4-((S)-1-propyl-pyrrolidin-3-yl)-phenyl]-benzenesulfonamide hydrochloride], in assay [1], the inhibition constant (Ki) came out at 0.09 nM and the “Ki(D2)*/Ki(D3)*” value was determined as 89. Moreover, in assay [2], the Ki was 7.6 nM.

For `CCCN1CC[C@@H](c2ccc(NS(=O)(=O)c3ccc(C(C)(C)CC)cc3)cc2)C1.Cl` [Example 2, 4-(1,1-Dimethyl-propyl)-N-[4-((S)-1-propyl-pyrrolidin-3-yl)-phenyl]-benzenesulfonamide hydrochloride], the inhibition constant (Ki) in assay [1] came to 0.24 nM; in assay [2] it was 2.3 nM. Also, the “Ki(D2)*/Ki(D3)*” value in assay [1] amounted to 9.

Turning to `C=CCN1CC[C@@H](c2ccc(NS(=O)(=O)c3ccc(C(C)C)cc3)cc2)C1.Cl` [Example 3, 4-(Isopropyl)-N-[4-((S)-1-allyl-pyrrolidin-3-yl)-phenyl]-benzenesulfonamide hydrochloride], in assay [1], the Ki stood at 0.17 nM and the “Ki(D2)*/Ki(D3)*” value is 91. For the same compound, in assay [2], the inhibition constant (Ki) stood at 13.8 nM.

With `C=CCN1CC[C@H](c2ccc(NS(=O)(=O)c3ccc(C(C)C)cc3)cc2)C1.Cl` [Example 4, 4-(Isopropyl)-N-[4-((R)-1-allyl-pyrrolidin-3-yl)-phenyl]-benzenesulfonamide hydrochloride], in assay [1], the inhibitory constant (Ki) stood at 3.16 nM and the “Ki(D2)*/Ki(D3)*” value is given as 127. Further, in assay [2], the Ki is 403 nM.

Regarding `CCCN1CC[C@H](c2ccc(NS(=O)(=O)c3ccc(C(C)C)cc3)cc2)C1.Cl` [Example 5, 4-(Isopropyl)-N-[4-((R)-1-propyl-pyrrolidin-3-yl)-phenyl]benzenesulfonamide hydrochloride], in assay [1], affinity was put at a Ki of 2.9 nM and the “Ki(D2)*/Ki(D3)*” value is 93. The Ki in assay [2] was determined as 267 nM.

As for `CCCN1CC[C@@H](c2ccc(NS(=O)(=O)c3ccc(CC)cc3)cc2)C1.Cl` [Example 6, 4-Ethyl-N-[4-((S)-1-propyl-pyrrolidin-3-yl)-phenyl]-benzenesulfonamide hydrochloride], in assay [1], the affinity corresponds to a Ki of 0.45 nM and the “Ki(D2)*/Ki(D3)*” value stood at 45. The Ki in assay [2] amounted to 20.1 nM.

Consider `CCCN1CC[C@@H](c2ccc(NS(=O)(=O)c3ccc(OC(F)(F)F)cc3)cc2)C1.Cl` [Example 7, 4-Trifluoromethoxy-N-[4-((S)-1-propyl-pyrrolidin-3-yl)-phenyl]-benzenesulfonamide hydrochloride], for which, in assay [1], the Ki came to 3.5 nM and the “Ki(D2)*/Ki(D3)*” value is listed as 61. Further, the Ki in assay [2] was 212 nM.

Regarding `CCCN1CC[C@@H](c2ccc(NS(=O)(=O)c3ccc(C(F)(F)F)cc3)cc2)C1.Cl` [Example 8, 4-Trifluoromethyl-N-[4-((S)-1-propyl-pyrrolidin-3-yl)-phenyl]-benzenesulfonamide hydrochloride], in assay [1], the affinity, expressed as Ki, was 4.1 nM and the “Ki(D2)*/Ki(D3)*” value is listed as 57. In addition, the Ki in assay [2] was 235 nM.

Turning to `CCCN1CC[C@@H](c2ccc(NS(=O)(=O)c3ccc(OC(F)F)cc3)cc2)C1.Cl` [Example 9, 4-Difluoromethoxy-N-[4-((S)-1-propyl-pyrrolidin-3-yl)-phenyl]-benzenesulfonamide hydrochloride], the Ki in assay [1] was found to be 2.6 nM; in assay [2] it was 129 nM. In addition, the “Ki(D2)*/Ki(D3)*” value in assay [1] was determined as 49.

As for `CCCN1CC[C@@H](c2ccc(NS(=O)(=O)c3ccc(C)cc3)cc2)C1.Cl` [Example 10, 4-Methyl-N-[4-((S)-1-propyl-pyrrolidin-3-yl)-phenyl]-benzenesulfonamide hydrochloride], the figures for the inhibitory constant (Ki) in assay [1] and in assay [2] were 1.9 nM and 111 nM, respectively. The “Ki(D2)*/Ki(D3)*” value in assay [1] is 60.

`CCCN1CC[C@@H](c2ccc(NS(=O)(=O)c3ccc(OC)cc3)cc2)C1` [Example 12, 4-Methoxy-N-[4-((S)-1-propyl-pyrrolidin-3-yl)-phenyl]-benzenesulfonamide]: the Ki in assay [1] worked out at 3 nM; in assay [2], 131 nM. Besides, the “Ki(D2)*/Ki(D3)*” value in assay [1] turned out to be 43.

`CCCN1CC[C@@H](c2ccc(NS(=O)(=O)c3ccc(Cl)cc3)cc2)C1` [Example 13, 4-Chloro-N-[4-((S)-1-propyl-pyrrolidin-3-yl)-phenyl]-benzenesulfonamide]: in assay [1], the affinity, expressed as Ki, was 3.1 nM and the “Ki(D2)*/Ki(D3)*” value worked out at 54. In addition, the Ki in assay [2] was 168 nM.

Take `CCCN1CC[C@@H](c2ccc(NS(=O)(=O)c3ccc4c(c3)CCO4)cc2)C1` [Example 14, 2,3-Dihydro-benzofuran-5-sulfonic acid [4-((S)-1-propyl-pyrrolidin-3-yl)-phenyl]-amide]: in assay [1], the inhibition constant Ki came out at 3.4 nM and the “Ki(D2)*/Ki(D3)*” value is 37. Further, in assay [2], the inhibition constant Ki stood at 123 nM.

In the case of `CCCN1CC[C@@H](c2ccc(NS(=O)(=O)c3ccc(Br)c(F)c3)cc2)C1` [Example 15, 4-Bromo-3-fluoro-N-[4-((S)-1-propyl-pyrrolidin-3-yl)-phenyl]-benzenesulfonamide], in assay [1], the Ki was 1.9 nM and the “Ki(D2)*/Ki(D3)*” value is given as 39. For the same compound, in assay [2], the Ki was determined as 74 nM.

On to `CCCN1CC[C@@H](c2ccccc2NS(=O)(=O)c2ccc(Br)c(F)c2)C1` [Example 16, 4-Bromo-3-fluoro-N-[2-((S)-1-propyl-pyrrolidin-3-yl)-phenyl]-benzenesulfonamide], for which the inhibition constant Ki in assay [1] was 12.6 nM; in assay [2] it was 393 nM. For the same compound, the “Ki(D2)*/Ki(D3)*” value in assay [1] was 31.

In the case of `CCCN1CC[C@@H](c2ccc(NS(=O)(=O)c3ccc(Br)cc3F)cc2)C1` [Example 17, 4-Bromo-2-fluoro-N-[4-((S)-1-propyl-pyrrolidin-3-yl)-phenyl]-benzenesulfonamide], in assay [1], the affinity corresponds to a Ki of 3.1 nM and the “Ki(D2)*/Ki(D3)*” value is 41. The Ki in assay [2] is 126 nM.

On to `CC(C)c1ccc(S(=O)(=O)Nc2ccc([C@@H]3CCNC3)cc2)cc1` [Example 18, 4-Isopropyl-N-[4-((S)-pyrrolidin-3-yl)-phenyl]-benzenesulfonamide], for which, in assay [1], the affinity, expressed as Ki, was 2.3 nM and the “Ki(D2)*/Ki(D3)*” value was 39. Further, the Ki in assay [2] stood at 90 nM.

In the case of `C=C(C)c1ccc(S(=O)(=O)Nc2ccc([C@@H]3CCN(CCC)C3)cc2)c(F)c1` [Example 19, 2-Fluoro-4-isopropenyl-N-[4-((S)-1-propyl-pyrrolidin-3-yl)-phenyl]-benzenesulfonamide], in assay [1], the Ki amounted to 0.48 nM and the “Ki(D2)*/Ki(D3)*” value was determined as 26. Moreover, the Ki in assay [2] is 12.6 nM.

Consider `C=C(C)c1ccc(S(=O)(=O)Nc2ccc([C@@H]3CCN(CCC)C3)cc2)cc1F` [Example 20, 3-Fluoro-4-isopropenyl-N-[4-((S)-1-propyl-pyrrolidin-3-yl)-phenyl]-benzenesulfonamide], for which, in assay [1], affinity was put at a Ki of 0.3 nM and the “Ki(D2)*/Ki(D3)*” value is given as 24. Also, in assay [2], the inhibition constant Ki was 7.3 nM.

`CCCN1CC[C@@H](c2ccc(NS(=O)(=O)c3ccc(C(C)C)cc3F)cc2)C1` [Example 21, 2-Fluoro-4-isopropyl-N-[4-((S)-1-propyl-pyrrolidin-3-yl)-phenyl]-benzenesulfonamide]: in assay [1], the Ki turned out to be 0.4 nM and the “Ki(D2)*/Ki(D3)*” value came to 27. Besides, the Ki in assay [2] turned out to be 11 nM.

In turn, `CCCN1CC(c2ccc(NS(=O)(=O)c3ccc(CCC(F)(F)F)cc3)cc2)C1` [Example 61, N-[4-(1-Propyl-azetidin-3-yl)-phenyl]-4-(3,3,3-trifluoro-propyl)-benzenesulfonamide] showed an inhibitory constant (Ki) in assay [1] of 21.3 nM.

For `CCCN1CCC(c2ccc(NS(=O)(=O)c3ccc(C(C)C)cc3)c(F)c2)C1.Cl` (stereo not drawn) [Example 134, N-[2-Fluoro-4-(1-propyl-pyrrolidin-3-yl)-phenyl]-4-isopropyl-benzenesulfonamide, hydrochloride], in assay [1], the affinity, expressed as Ki, was 0.76 nM and the “Ki(D2)*/Ki(D3)*” value amounted to 13.

As for `CC(=O)O.COc1cc(C2CCNC2)ccc1NS(=O)(=O)c1ccc(C(C)C)cc1` (stereo not drawn) [Example 135, 4-Isopropyl-N-(2-methoxy-4-pyrrolidin-3-yl-phenyl)-benzenesulfonamide, acetate], in assay [1], the inhibition constant (Ki) was determined as 0.85 nM and the “Ki(D2)*/Ki(D3)*” value amounted to 17.

For `CCCN1CCC(c2ccc(NS(=O)(=O)c3ccc(C(C)C)cc3)c(OC)c2)C1.Cl` (stereo not drawn) [Example 136, 4-Isopropyl-N-[2-methoxy-4-(1-propyl-pyrrolidin-3-yl)-phenyl]-benzenesulfonamide, hydrochloride], in assay [1], the affinity corresponds to a Ki of 0.27 nM and the “Ki(D2)*/Ki(D3)*” value was determined as 6.

Take `C=CCN1CCC(c2ccc(NS(=O)(=O)c3ccc(C(C)C)cc3)c(OC)c2)C1.Cl` (stereo not drawn) [Example 137, N-[4-(1-Allyl-pyrrolidin-3-yl)-2-methoxy-phenyl]-4-isopropyl-benzenesulfonamide, hydrochloride]: in assay [1], the Ki is 0.36 nM and the “Ki(D2)*/Ki(D3)*” value stood at 12.

A word on the Ki: it is a measure of affinity in units of concentration, obtained from inhibition or displacement.
